In one data set the target is FPTase (H-Ras substrate) (UniProt P29702+P49355). The data set can be described thus: in vitro FTase Inhibition Assay, H-Ras as substrate for farnesylation. It is filed as biochemical. The note with it: H-Ras used as substrate for farnesylation. In outline: (§1)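 His6-Ras substrate ([…]) with 10 ng FPTase in 50 mM Tris pH 7.5, ZnCl2, MgCl2, KCl, DTT, 0.2% octyl-β-glucoside, 1% DMSO; incubated 30-90 min. TCA/SDS-precipitated Ras filtered, 3H-FPP incorporation counted; % inhibition from background-corrected cpm versus no-compound control.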

The target of a further data set is FPTase (K-Ras substrate) (UniProt P29702+P49355). The data set can be described thus: in vitro FTase Inhibition Assay, K-Ras as substrate for farnesylation. It is filed as biochemical. The following applies: K-Ras used as substrate for farnesylation. In a few lines:
as §1

Data set [1] concerns K-ras dependent human colon carcinoma (LoVo). Put plainly: In vivo effects against K-ras dependent human colon carcinoma (LoVo). The note with it: rats; for S/T = No. Survivors/No.Treated: Day +35 post tumor cell implantation. As to the method:
Compounds of this invention were tested for in vivo effects in rats against various tumors. For the compound of Example 114, when tested against a K-ras dependent human colon carcinoma (LoVo), the following results were obtained (Table II): […]

Molecules are shown by their SMILES.

In the case of `COc1ccc(S(=O)(=O)C2(CCCC#Cc3cc(Cl)ccc3Cl)SC(=O)NC2=O)cc1` (centres unmarked) [Example 114, 5-[5-(2,5-Dichloro-phenyl)pent-4-ynyl]-5-(4-methoxy-benzenesulfonyl)-thiazolidine-2,4-dione], the figures for the IC50 on FPTase (H-Ras substrate) and against FPTase (K-Ras substrate) were 13 to 32 nM and 32 to 320 nM, respectively. Further, in data set [1] (Day 8, 75* mg/kg IP, BID days 1-20, prepared in 2% Tween 80 in D5W, vs 2% Tween in D5W), the “Mean Tumor Weight” value worked out at 86 mg. For the same molecule, the “% T/C” value in data set [1] (Day 15, 75* mg/kg IP, BID days 1-20, prepared in 2% Tween 80 in D5W, vs 2% Tween in D5W) is recorded as 150%. The “S/T = No. Survivors/No.Treated” value is 5/10 in data set [1] (50 mg/kg IP, BID days 1-20, Methocel/Tween 80 series); 8/10 in data set [1] (75 mg/kg IP, BID days 1-20, Methocel/Tween 80 series); 9/10 in data set [1] (100 mg/kg IP, once a day days 1-20, Methocel/Tween 80 series); 9/10 in data set [1] (100 mg/kg PO, BID days 1-20, 20% BCD in 0.1 N HCl series).

Usually IC50 stands for the point on the concentration scale where inhibition reaches its midpoint. High values mean weaker potency in that assay, low ones greater potency in that assay.

The values above are taken from US6784184B2, “5-(arylsulfonyl)-,5-(arylsulfinyl), and 5-(arylsulfanyl)-thiazolidine-2,4-diones useful for inhibition of farnesyl-protein transferase” (Wyeth Holdings Corporation, priority 2001, dated 2004).
